Data on 86 compounds can be found in the Kinase Knowledgebase extract (Sharma et al. 2016).

The assay has as its target MAPK14 (UniProt Q16539). Briefly: Inhibition of MAPK14 Kinase Activity.

Chain of MAPK14 (Q16539 whole entry, looked up): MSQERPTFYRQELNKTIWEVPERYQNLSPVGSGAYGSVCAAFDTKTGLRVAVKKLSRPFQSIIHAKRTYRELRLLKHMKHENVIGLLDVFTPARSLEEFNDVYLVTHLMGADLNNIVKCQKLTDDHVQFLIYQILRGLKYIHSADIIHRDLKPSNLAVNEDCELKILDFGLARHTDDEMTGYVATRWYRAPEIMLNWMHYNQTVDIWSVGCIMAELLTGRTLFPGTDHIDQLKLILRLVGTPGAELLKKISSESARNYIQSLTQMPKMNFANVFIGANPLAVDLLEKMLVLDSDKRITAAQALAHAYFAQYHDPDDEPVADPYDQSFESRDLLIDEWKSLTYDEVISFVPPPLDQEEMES

The term IC50 denotes the concentration needed to halve the response being measured. Low values mean higher potency, high ones lower potency. With `Cc1c(F)cc(C(=O)NC2CC2)cc1-c1ccc(C(=O)NCc2c(F)ccc(F)c2Cl)cn1`, the IC50 was < 10 µM. `CCCC(C)NC(=O)c1ccc(-c2cc(C(=O)NC3CC3)cc(F)c2C)nc1` (stereo unspecified): the IC50 is < 10 µM.

Consider `Cc1c(F)cc(C(=O)NC2CC2)cc1-c1ccc(C(=O)NCC2CCCC2)cn1`, for which the IC50 was < 10 µM. Turning to `CCC1(CC)CN(C(=O)c2ccc(-c3cc(C(=O)NC4CC4)cc(F)c3C)nc2)C1`, the half-inhibitory concentration (IC50) was < 10 µM. For `CCNC(=O)c1ccc(-c2cc(C(=O)NC3CC3)cc(F)c2C)nc1` the value was < 10 µM; for `Cc1ccc(C(=O)Nc2nccs2)cc1-c1ccc(C(=O)Nc2ccccc2CN2CCN(C)CC2)cn1`, < 10 µM. As for `CCCNC(=O)c1ccc(-c2cc(C(=O)NC3CC3)cc(F)c2C)nc1`, the figure is < 10 µM; as for `Cc1ccc(C(=O)NCC2CC2)cc1-c1ccc(C(=O)NCC2CC2)cn1`, < 10 µM; as for `Cc1c(F)cc(C(=O)NC2CC2)cc1-c1ccc(C(=O)NCc2cccc(Cl)c2)cn1`, < 10 µM. As for `Cc1c(F)cc(C(=O)NC2CC2)cc1-c1ccc(C(=O)NCc2cc(Cl)ccc2F)cn1`, the figure is < 10 µM.

`COc1cccc(CNC(=O)c2ccc(-c3cc(NC(=O)c4ccoc4)ccc3C)nc2)c1`: the IC50 is < 10 µM. `CCC1CCCCN1C(=O)c1ccc(-c2cc(C(=O)NC3CC3)cc(F)c2C)nc1` (stereo unspecified): the IC50 was < 10 µM.

In the case of `Cc1ccc(NC(=O)c2ccsc2)cc1-c1ccc(C(=O)NCc2cccc(NS(C)(=O)=O)c2)cn1`, the IC50 is < 10 µM. As for `Cc1c(F)cc(C(=O)NC2CC2)cc1-c1ccc(C(=O)NCc2ccc(F)c(Cl)c2)cn1`, the figure is < 10 µM; as for `Cc1c(F)cc(C(=O)NC2CC2)cc1-c1ccc(C(=O)N(C)C(C)C)cn1`, < 10 µM. As for `Cc1c(F)cc(C(=O)NC2CC2)cc1-c1ccc(C(=O)NCc2ccc(Cl)cc2)cn1`, the figure is < 10 µM. Turning to `COc1cccc(CNC(=O)c2ccc(-c3cc(C(=O)Nc4nncs4)ccc3C)nc2)c1`, the IC50 was < 10 µM.

On to `Cc1c(F)cc(C(=O)NC2CC2)cc1-c1ccc(C(=O)NC2CCCC2)cn1`, for which the IC50 is < 10 µM. As for `Cc1c(F)cc(C(=O)NC2CC2)cc1-c1ccc(C(=O)NCCc2ccccc2)cn1`, the figure is < 10 µM.

As to `COc1cccc(NC(=O)c2ccc(-c3cc(C(=O)NC4CC4)cc(F)c3C)nc2)c1`, the IC50 was < 10 µM. As for `Cc1c(F)cc(C(=O)NC2CC2)cc1-c1ccc(C(=O)N(C)C2CCCC2)cn1`, the IC50 was < 10 µM. As to `Cc1c(F)cc(C(=O)NC2CC2)cc1-c1ccc(C(=O)NCc2ccc(F)cc2)cn1`, the IC50 was < 10 µM. `Cc1ccccc1CNC(=O)c1ccc(-c2cc(C(=O)NC3CC3)cc(F)c2C)nc1`: the IC50 is < 10 µM. For `Cc1c(F)cc(C(=O)NC2CC2)cc1-c1ccc(C(=O)N(C)CCC2CCCC2)cn1` the value was < 10 µM; for `Cc1ccsc1CNC(=O)c1ccc(-c2cc(C(=O)NC3CC3)cc(F)c2C)nc1`, < 10 µM; for `Cc1c(F)cc(C(=O)NC2CC2)cc1-c1ccc(C(=O)NCc2ccc(F)c(F)c2)cn1`, < 10 µM. For `COc1cccc(CNC(=O)c2ccc(-c3cc(C(=O)Nc4nccs4)ccc3C)nc2)c1` the value was < 10 µM. For `COc1cccc(CNC(=O)c2ccc(-c3cc(C(=O)NCC4CC4)ccc3C)nc2)c1` the value was < 10 µM. In the case of `Cc1ccc(NC(=O)c2ccsc2)cc1-c1ccc(C(=O)NCC2CC2)cn1`, the IC50 was < 10 µM.

As to `Cc1cccc(NC(=O)c2ccc(-c3cc(C(=O)NC4CC4)cc(F)c3C)nc2)c1`, the IC50 was < 10 µM. As to `Cc1c(F)cc(C(=O)NC2CC2)cc1-c1ccc(C(=O)NCCC(C)(C)C)cn1`, the IC50 was < 10 µM. As for `Cc1c(F)cc(C(=O)NC2CC2)cc1-c1ccc(C(=O)NC2CC2(C)C)cn1` (stereo unspecified), the figure is < 10 µM; as for `Cc1c(F)cc(C(=O)NC2CC2)cc1-c1ccc(C(=O)N2CCCC(C)(C)C2)cn1`, < 10 µM; as for `Cc1ccc(C(=O)NCC2CC2)cc1-c1ccc(C(=O)Nc2ccccc2CN2CCN(C)CC2)cn1`, < 10 µM.

On to `Cc1ccc(C(=O)Nc2nccs2)cc1-c1ccc(C(=O)NCc2cccc(NS(C)(=O)=O)c2)cn1`, for which the IC50 was < 10 µM. For `Cc1c(F)cc(C(=O)NC2CC2)cc1-c1ccc(C(=O)NCc2ccc(Cl)cc2F)cn1` the value was < 10 µM. For `Cc1c(F)cc(C(=O)NC2CC2)cc1-c1ccc(C(=O)NCc2ccc(F)cc2F)cn1`, the IC50 was < 10 µM.

Take `Cc1c(F)cc(C(=O)NC2CC2)cc1-c1ccc(C(=O)NCc2ccccc2C(F)(F)F)cn1`: the half-maximal inhibitory concentration (IC50) was < 10 µM. Regarding `Cc1c(F)cc(C(=O)NC2CC2)cc1-c1ccc(C(=O)NCCOC(C)(C)C)cn1`, the IC50 was < 10 µM. As for `Cc1c(F)cc(C(=O)NC2CC2)cc1-c1ccc(C(=O)NCCc2nccs2)cn1`, the figure is < 10 µM; as for `COc1cccc(CNC(=O)c2ccc(-c3cc(C(=O)NC4CC4)ccc3C)nc2)c1`, < 10 µM; as for `Cc1c(F)cc(C(=O)NC2CC2)cc1-c1ccc(C(=O)NCc2cc(F)ccc2F)cn1`, < 10 µM. For `Cc1ccc(C(=O)Nc2nncs2)cc1-c1ccc(C(=O)NCc2cccc(NS(C)(=O)=O)c2)cn1` the value was < 10 µM; for `Cc1c(F)cc(C(=O)NC2CC2)cc1-c1ccc(C(=O)NCc2cc(F)cc(F)c2F)cn1`, < 10 µM. As for `Cc1ccc(CNC(=O)c2ccc(-c3cc(C(=O)NC4CC4)cc(F)c3C)nc2)c(F)c1F`, the figure is < 10 µM; as for `COCCNC(=O)c1ccc(-c2cc(C(=O)NC3CC3)cc(F)c2C)nc1`, < 10 µM; as for `CCC(C)(CC)NC(=O)c1ccc(-c2cc(C(=O)NC3CC3)cc(F)c2C)nc1`, < 10 µM. Turning to `COc1ccc(NC(=O)c2ccc(-c3cc(C(=O)Nc4nccs4)ccc3C)nc2)cc1`, the IC50 was < 10 µM.

For `CCCC1CCCCN1C(=O)c1ccc(-c2cc(C(=O)NC3CC3)cc(F)c2C)nc1` (stereo unspecified), the half-inhibitory concentration (IC50) is < 10 µM. As for `Cc1c(F)cc(C(=O)NC2CC2)cc1-c1ccc(C(=O)NC(C)C2CC2)cn1` (stereo unspecified), the figure is < 10 µM. `Cc1c(F)cc(C(=O)NC2CC2)cc1-c1ccc(C(=O)NCc2c(F)ccc(Cl)c2F)cn1`: the IC50 was < 10 µM. For `CCC1CCCN(C(=O)c2ccc(-c3cc(C(=O)NC4CC4)cc(F)c3C)nc2)C1` (stereo unspecified), the IC50 is < 10 µM.

Take `CCCC(O)C(C)(C)NC(=O)c1ccc(-c2cc(C(=O)NC3CC3)cc(F)c2C)nc1` (stereo unspecified): the IC50 was < 10 µM. As for `Cc1c(F)cc(C(=O)NC2CC2)cc1-c1ccc(C(=O)N(C)CC(C)C)cn1`, the figure is < 10 µM. For `Cc1ccc(C(=O)NC2CC2)cc1-c1ccc(C(=O)NCc2cccc(NS(C)(=O)=O)c2)cn1` the value was < 10 µM; for `Cc1ccc(C(=O)NC2CC2)cc1-c1ccc(C(=O)Nc2ccccc2CN2CCN(C)CC2)cn1`, < 10 µM; for `Cc1c(F)cc(C(=O)NC2CC2)cc1-c1ccc(C(=O)NCc2ccc(C(F)(F)F)cc2)cn1`, < 10 µM. For `Cc1c(F)cc(C(=O)NC2CC2)cc1-c1ccc(C(=O)NCc2cccc(F)c2F)cn1` the value was < 10 µM; for `Cc1c(F)cc(C(=O)NC2CC2)cc1-c1ccc(C(=O)NCCC(C)C)cn1`, < 10 µM. As to `Cc1ccc(F)cc1CNC(=O)c1ccc(-c2cc(C(=O)NC3CC3)cc(F)c2C)nc1`, the IC50 is < 10 µM. As for `Cc1ccc(CNC(=O)c2ccc(-c3cc(C(=O)NC4CC4)cc(F)c3C)nc2)o1`, the figure is < 10 µM; as for `Cc1c(F)cc(C(=O)NC2CC2)cc1-c1ccc(C(=O)N(C)C2(C)CCCC2)cn1`, < 10 µM. Take `Cc1c(F)cc(C(=O)NC2CC2)cc1-c1ccc(C(=O)NCc2cccc(C(F)(F)F)c2)cn1`: the IC50 was < 10 µM. For `Cc1c(F)cc(C(=O)NC2CC2)cc1-c1ccc(C(=O)N2CCCCC2C)cn1` (stereo unspecified) the value was < 10 µM; for `CCN(C(=O)c1ccc(-c2cc(C(=O)NC3CC3)cc(F)c2C)nc1)C1CCCCC1`, < 10 µM. For `C/C=C/C(C)(C)NC(=O)c1ccc(-c2cc(C(=O)NC3CC3)cc(F)c2C)nc1` the value was < 10 µM; for `CCC1(C)CCCCN1C(=O)c1ccc(-c2cc(C(=O)NC3CC3)cc(F)c2C)nc1` (stereo unspecified), < 10 µM. Regarding `Cc1ccc(C(=O)Nc2nncs2)cc1-c1ccc(C(=O)NCC2CC2)cn1`, the IC50 was < 10 µM.

As to `Cc1c(F)cc(C(=O)NC2CC2)cc1-c1ccc(C(=O)NCC2CCC2)cn1`, the IC50 is < 10 µM.

As for `Cc1c(F)cc(C(=O)NC2CC2)cc1-c1ccc(C(=O)NC(C)Cc2nccs2)cn1` (stereo unspecified), the IC50 was < 10 µM. Regarding `Cc1c(F)cc(C(=O)NC2CC2)cc1-c1ccc(C(=O)NCc2ccccc2Cl)cn1`, the IC50 is < 10 µM. As for `Cc1ccc(C(=O)Nc2nncs2)cc1-c1ccc(C(=O)Nc2ccccc2CN2CCN(C)CC2)cn1`, the figure is < 10 µM; as for `Cc1ccc(C(=O)Nc2cccc(-c3ccccn3)c2)cc1-c1ccc(C(=O)NCC2CC2)cn1`, < 10 µM. As for `Cc1c(F)cc(C(=O)NC2CC2)cc1-c1ccc(C(=O)N2CCCC(C)C2C)cn1` (stereo unspecified), the figure is < 10 µM; as for `Cc1c(F)cc(C(=O)NC2CC2)cc1-c1ccc(C(=O)NCc2ccccc2)cn1`, < 10 µM. As for `COc1cccc(CNC(=O)c2ccc(-c3cc(NC(=O)c4ccsc4)ccc3C)nc2)c1`, the figure is < 10 µM. With `Cc1ccc(NC(=O)c2ccoc2)cc1-c1ccc(C(=O)NCC2CC2)cn1`, the IC50 was < 10 µM. For `Cc1ccc(NC(=O)c2ccoc2)cc1-c1ccc(C(=O)Nc2ccccc2CN2CCN(C)CC2)cn1` the value was < 10 µM. As for `Cc1c(F)cc(C(=O)NC2CC2)cc1-c1ccc(C(=O)NCC2CCCCC2)cn1`, the figure is < 10 µM. As for `CCCC(O)C(C)NC(=O)c1ccc(-c2cc(C(=O)NC3CC3)cc(F)c2C)nc1` (stereo unspecified), the figure is < 10 µM; as for `Cc1cccc(CNC(=O)c2ccc(-c3cc(C(=O)NC4CC4)cc(F)c3C)nc2)c1`, < 10 µM. Take `Cc1csc(CNC(=O)c2ccc(-c3cc(C(=O)NC4CC4)cc(F)c3C)nc2)n1`: the IC50 is < 10 µM. For `Cc1ccc(NC(=O)c2ccoc2)cc1-c1ccc(C(=O)NCc2cccc(NS(C)(=O)=O)c2)cn1` the value was < 10 µM; for `Cc1c(F)cc(C(=O)NC2CC2)cc1-c1ccc(C(=O)NCC(F)c2ccccc2)cn1` (stereo unspecified), < 10 µM; for `COc1ccc(NC(=O)c2ccc(-c3cc(C(=O)Nc4nncs4)ccc3C)nc2)cc1`, < 10 µM. As for `Cc1ccc(CNC(=O)c2ccc(-c3cc(C(=O)NC4CC4)cc(F)c3C)nc2)cc1F`, the figure is < 10 µM.
